Reference: ChEMBL document CHEMBL5030528, “Xanthine Derivatives Reveal an Allosteric Binding Site in Methylenetetrahydrofolate Dehydrogenase 2 (MTHFD2)” (J Med Chem, 2021)
Calls of active or inactive are those of the source. The rule behind the calls is not given here.

Assays:
[1] = target: T1, Bifunctional methylenetetrahydrofolate dehydrogenase/cyclohydrolase, mitochondrial (Homo sapiens) (UniProt P13995); assay: Uncompetitive inhibition of C-terminal His-tagged human MTHFD2 (36 to 350 residues) expressed in insect cells assessed as decrease in Km by using varying levels of tetrahydrofolate as substrate by double-reciprocal plot analysis; conditions: time 10.0 min
T1 sequence (whole entry): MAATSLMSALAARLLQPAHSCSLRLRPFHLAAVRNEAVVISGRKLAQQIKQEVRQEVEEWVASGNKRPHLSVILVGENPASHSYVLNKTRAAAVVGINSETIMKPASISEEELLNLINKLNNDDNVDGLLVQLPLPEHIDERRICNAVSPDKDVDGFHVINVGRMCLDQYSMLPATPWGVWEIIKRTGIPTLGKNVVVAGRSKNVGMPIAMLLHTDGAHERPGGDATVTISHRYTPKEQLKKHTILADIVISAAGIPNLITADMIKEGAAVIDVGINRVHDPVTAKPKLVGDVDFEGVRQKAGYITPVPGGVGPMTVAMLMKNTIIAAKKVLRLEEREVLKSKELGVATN

[2] = target: T1, Bifunctional methylenetetrahydrofolate dehydrogenase/cyclohydrolase, mitochondrial (Homo sapiens); assay: Uncompetitive inhibition of C-terminal His-tagged human MTHFD2 (36 to 350 residues) expressed in insect cells assessed as decrease in Vmax using varying levels of tetrahydrofolate as substrate by double-reciprocal plot analysis; conditions: time 10.0 min

## Cc1cc(Nc2nc3c(c(=O)n(Cc4cc5c(Cl)cccc5[nH]4)c(=O)n3C)n2C)nc(CCC(=O)O)n1
[1]
  inhibition: Active
[2]
  inhibition: Active
